Experimental data published in publication PMC8778187, “A New Oxygen Containing Pyclen-Type Ligand as a Manganese(II) Binder for MRI and ^52Mn PET Applications: Equilibrium, Kinetic, Relaxometric, Structural and Radiochemical Studies” (Molecules, 2022).
Read-outs that look alike come from different tables or passages of the source. Marks after values point to notes of the source that are not given here. Blank lines part the entries; values can stand above or below the compound they belong to.

Key:
[1] = T = 25 °C, ref 16 (PC2A ligands), 12 (DO2A ligands), cited from earlier work; for log KMnL / log KMnHL: Mn^2+ complex, I = 0.15 M NaCl; for log KMnL / pMn: 20 (H21,7-O2DO2A); for pMn: pMn = −log(Mn(II)free), cMn^2+ = cligand = 1 × 10^−5 M, pH = 7.4
[2] = Zn^2+ complex, T = 25 °C, I = 0.15 M NaCl, cited from earlier work; for log KMnLOH: DO2A values carry footnote f, ref 12 (DO2A ligands); for log KMnLOH / log KMnL: 20 (H21,7-O2DO2A); for log KMnL / log KMnHL: ref 16 (PC2A ligands), 12 (DO2A ligands)
[3] = T = 25 °C, I = 0.15 M NaCl, ref 16 (PC2A ligands), 12 (DO2A ligands), cited from earlier work; for log K1^H / log K2^H / log K3^H / Σlog Κ2^H: 20 (H21,7-O2DO2A); for Σlog Κ2^H: log K1^H + log K2^H
[4] = Cu^2+ complex; T = 25 °C, I = 0.15 M NaCl; ref 16 (PC2A ligands), 12 (DO2A ligands), 20 (H21,7-O2DO2A); cited from earlier work
[5] = Ca^2+ complex; T = 25 °C, I = 0.15 M NaCl; ref 16 (PC2A ligands), 12 (DO2A ligands), 20 (H21,7-O2DO2A); cited from earlier work
[6] = cited from earlier work; for r1p: Mn(II) complex, 0.49 T, pH = 7.4, ref 16 (PC2A ligands), 12 (DO2A ligands), 20 (H21,7-O2DO2A); for r1p / relaxivity upon binding to HSA: 25 °C; for relaxivity upon binding to HSA: Mn(II) bound to HSA; for relaxivity of complexes with q = 0: typical values
[7] = 1H relaxometry: r1p and r2p relaxivity of Mn(II) complexes; assay type: physicochemical; conditions: free Mn(II) ion, 1.41 T
Experimental: The relaxivity of Mn(II) complexes is one of the most important parameters that directly correlates with its MRI efficacy. Relaxivity is defined as the longitudinal (r1p) and transverse (r2p) water proton relaxation rate enhancement, provided by 1.0 mM concentration of the paramagnetic species. The relaxivity (r1p and r2p) of the Mn(II) complexes were determined using relaxometers operating at 0.49 T and 1.41 T field strength, in a HEPES buffer (I = 0.15 M NaCl) at different temperatures from the slopes of plots 1/T1,2 vs. (Mn(II)) for 4 concentrations of Mn(II) (data shown in Supporting Information Figures S24 and S25), and they are compared in Table 4.
The ^1H longitudinal (T1) and transverse (T2) relaxation times were measured by using Bruker Minispec MQ-20 and MQ-60 NMR analyzers (Bruker corporation, Billerica, MA, USA). The temperature of the sample holder was set at 25.0 or 37 (±0.2) °C, and controlled with a circulating water bath thermostat. The T1 values of the samples were determined by means of the inversion recovery method (180°–τ–90°), averaging 4–6 data points obtained at 12 different τ delay times, while T2 data were collected by using the Carl–Purcell–Meiboom–Gill (CPMG) spin-echo pulse sequence. Relaxivities were determined by published procedures (from the slopes of the plots of 1/T1,2 vs. (Mn(II)) for 4 concentrations of Mn(II)), in samples of 0.3–0.4 mL volume (data shown in Figures S24 and S25, Supplementary Information). The pH were set by either using a 0.05 M 4-(2-hydroxyethyl)-1-piperazine-ethanesulfonic acid (HEPES) buffer (pH = 7.4) or monitored (pH profiles) using a Metrohm 827 pH lab pH meter and a Metrohm 6.0234.100 combined electrode, in the pH range of 1.75–11.8.

[8] = 17O NMR and NMRD measurements (water exchange, rotation, hydration number); assay type: physicochemical; conditions: ratio of kex^298 values
Experimental: The relaxivity of paramagnetic metal complexes is governed by several parameters, including the water exchange rate (kex), the rotational correlation time (τR), and the number of inner sphere water molecules (q). In order to obtain information for these parameters, temperature dependent ^17O NMR measurements (9.4 T) and nuclear magnetic relaxation dispersion (NMRD) experiments were carried out in the frequency range of 0.01–80 MHz, at 3 different temperatures (25, 37, and 50 °C). Since numerous physico-chemical parameters determine the relaxivity, the independent assessment of some of the parameters is essential for the correct characterization. The variable temperature ^17O NMR measurements can deliver information about kex and τR via the transverse (1/T2) and the longitudinal (1/T1) ^17O relaxation rates, respectively, while the ^17O chemical shifts (Δω) depend on q. Therefore, the transverse and longitudinal relaxation rates and chemical shifts for a [Mn(3,9-OPC2A)] complex and a diamagnetic reference sample (HClO4, pH = 3.3) have been determined in the aqueous solution.
The ^17O 1/T2r values and the NMRD data have been analyzed simultaneously by the Swift–Connick equations [31], as well as by the Solomon–Bloembergen–Morgan (SMB) and Freed models (see Supporting Information). In this calculation, the water exchange rate, kex^298; its activation enthalpy and entropy, ΔH^‡ and ΔS^‡; the rotational correlational time, τR; its activation energy, ER; the square of the zero-field splitting energy (ZFS), Δ^2; and the correlation time of its modulation, τv, have been determined and listed in Table 5, together with corresponding values of other complexes for comparison. As a result of the high number of parameters involved in the calculations, some have to be set to reasonable estimates based on literature data. Thus, the scalar coupling constant, A/ħO, is set to 33 × 10^6 rad s^−1, the distance between the metal ion, and the inner and outer sphere water protons are fixed to rMnH = 2.83 Å and aMnH = 3.6 Å, respectively; the diffusion coefficient and its activation energy are fixed to DMnH = 23 × 10^−10 m^2s^−1 and EMnH = 18 kJmol^−1, and the activation energy of the modulation of the zero-field-splitting, Ev to 1.0 kJmol^−1.
The hydration number has been fixed to q = 1, based on the relaxivity value measured at 20 MHz (r1 = 3.09 mM^−1s^−1), and on the value, 0.97 ± 0.2, determined for q using the method proposed by Gale et al..
A Bruker Avance 400 (9.4 T) spectrometer was used to measure the longitudinal (1/T1) and transverse (1/T2) relaxation rates, and the chemical shifts of an aqueous solution of the [Mn(3,9-OPC2A)] complex (pH = 7.4, 1.3 mM) and a diamagnetic reference (HClO4 acidified water, pH = 3.3) in the temperature range of 273–348 K. The temperature calibration was performed using literature protocols relying on ethylene glycol and methanol standards. The 1/T1 and 1/T2 values were determined by the inversion−recovery and the Carr−Purcell−Meiboom−Gill spin echo technique, respectively. To avoid susceptibility corrections of the chemical shifts, a glass sphere fitted into a 10 mm NMR tube was used to contain the samples. ^17O enriched water (10% H2^17O, CortecNet) was added to the solutions to improve sensitivity (circa 1% enrichment). Proton NMRD profiles of the [Mn(3,9-OPC2A)] complex (1.00 mM, pH = 7.4) were recorded in aqueous solution on a Stelar SMARTracer Fast Field Cycling relaxometer (0.01−10 MHz), and a Bruker WP80 NMR electromagnet adapted to variable field measurements (20−80 MHz) and controlled by a SMARTracer PC-NMR console (Stelar s.r.l., Mede, Italy). The temperature was monitored by a VTC91 temperature control unit and maintained by a gas flow. The temperature was determined by previous calibration with a Pt resistance temperature probe. […]

[9] = cited from earlier work; for r1^298_20 MHz: 20 MHz, 298 K; for ΔH^‡: activation enthalpy of water exchange; for τv^298: correlation time of ZFS modulation; for q: hydration number; for τR^298: rotational correlation time; for Δ^2: square of the zero-field splitting energy; for kex^298: water exchange rate
[10] = cited from earlier work; for k2: ref 16 ([Mn(3,6-PC2A)]), 12 ([Mn(1,4-DO2A)]), 20 ([Mn(1,7-O2DO2A)]); for t1/2 (h) at pH = 7.4: extrapolated to pH = 7.4; for t1/2 (h) at pH = 7.4 / k1: ref 16 (PC2A complexes), 12, 13, 20; for k1: proton assisted dissociation
[11] = fixed during the fitting procedure

Compound: O=C(O)CN1CCNCCNCCN(CC(=O)O)CC1 [H21,4-DO2A]
log KMnL [1]: 15.68
log KMnHL [1]: 4.15
pMn [1]: 7.27
log KMnLOH [2]: 1.65 ^f
log KMnL [2]: 18.03
log KMnHL [2]: 3.58
log K1^H [3]: 11.44
log K2^H [3]: 9.51
log K3^H [3]: 4.14
log K4^H [3]: 1.55
Σlog Κ2^H [3]: 20.95
log KMnHL [4]: 2.95
log KMnL [4]: 24.43 ^g
log KMnL [5]: 8.62
r1p [6]: 2.10 mM⁻¹ s⁻¹

Compound: O=C(O)CN1CCNCCN(CC(=O)O)CCNCC1 [H21,7-DO2A]
log KMnL [1]: 14.64
log KMnHL [1]: 4.40
pMn [1]: 6.52
log KMnLOH [2]: 1.78 ^f
log KMnL [2]: 18.86
log KMnHL [2]: 4.23
log K1^H [3]: 11.69
log K2^H [3]: 9.75
log K3^H [3]: 3.97
log K4^H [3]: 2.68
Σlog Κ2^H [3]: 21.44
log KMnHL [4]: 3.06
log KMnL [4]: 24.24
log KMnL [5]: 8.86
r1p [6]: 1.50 mM⁻¹ s⁻¹

r2p relaxivity ([7]; 25 °C): 64.3 mM⁻¹ s⁻¹
r2p relaxivity ([7]; 37 °C): 54.2 mM⁻¹ s⁻¹
Compound: [Mn+2] [Mn(II) ion]
relaxivity upon binding to HSA ([6]; 0.47 T): 97.2 mM⁻¹ s⁻¹
relaxivity upon binding to HSA ([6]; 1.41 T): 76.35 mM⁻¹ s⁻¹
relaxivity in pure aqueous solution ([6]; Mn(II) ion): 7.92 mM⁻¹ s⁻¹

Compound: O=C([O-])CN1CCNCCNCCN(CC(=O)[O-])CC1.[Mn+2] [[Mn(1,4-DO2A)]]
water exchange faster than on [Mn(3,9-OPC2A)] [8]: 20 times
r1^298_20 MHz [9]: 2.1 mM⁻¹ s⁻¹
ER ([9]; activation energy of rotation): 19.1 kJmol^−1
ΔH^‡ [9]: 29.4 kJmol^−1
τv^298 [9]: 4.4 ps
q [9, 11]: 0.87
τR^298 [9]: 46 ps
Δ^2 [9]: 481 10^18s^−2
kex^298 [9]: 113 10^7s^−1
k2 ([10]; T = 25 °C, I = 0.15 M NaCl): 1.4 × 10^6 M^−2s^−1
t1/2 (h) at pH = 7.4 [10]: 48 h
k1 ([10]; T = 25 °C, I = 0.15 M NaCl): 99 M⁻¹ s⁻¹

Compound: CN(C)C(=O)CN1CCNCCNCCN(CC(=O)N(C)C)CC1.O.[Mn+2] [[Mn(1,4-DO2AM^Me2)]^2+]
r1^298_20 MHz [9]: 2.5 mM⁻¹ s⁻¹
ER ([9]; activation energy of rotation): 19.1 kJmol^−1
ΔH^‡ [9]: 36.9 kJmol^−1
τv^298 [9]: 5.5 ps
q [9, 11]: 0.87
τR^298 [9]: 53 ps
Δ^2 [9]: 510 10^18s^−2
kex^298 [9]: 11.5 10^7s^−1
t1/2 (h) at pH = 7.4 [10]: 556 h
k1 ([10]; T = 25 °C, I = 0.15 M NaCl): 8.7 M⁻¹ s⁻¹

Compound: O.O=C([O-])CN1CCOCCN(CC(=O)[O-])CCOCC1.[Mn+2] [[Mn(1,7-O2DO2A)]]
r1^298_20 MHz [9]: 2.86 mM⁻¹ s⁻¹
ΔH^‡ [9]: 29.7 kJmol^−1
ΔS^‡ ([9]; activation entropy of water exchange): 2.8 JK^−1mol^−1
ER [9, 11]: 20 ^e kJmol^−1
q [9, 11]: 1
τR^298 [9]: 46.7 ps
Δ^2 [9]: 111 10^18s^−2
kex^298 [9]: 5.3 10^7s^−1
k2 ([10]; T = 25 °C, I = 0.15 M NaCl): 3.0 × 10^6 M^−2s^−1
t1/2 (h) at pH = 7.4 [10]: 56.8 h
k1 ([10]; T = 25 °C, I = 0.15 M NaCl): 85 M⁻¹ s⁻¹

Compound: O.O=C([O-])CN1CCNCc2cccc(n2)CN(CC(=O)[O-])CC1.[Mn+2] [[Mn(3,6-PC2A)]]
k2 ([10]; T = 25 °C, I = 0.15 M NaCl): 1.5 × 10^5 M^−2s^−1
t1/2 (h) at pH = 7.4 [10]: 63.2 h
k3 ([10]; metal assisted dissociation, T = 25 °C, I = 0.15 M NaCl): 0.026 M⁻¹ s⁻¹
k1 ([10]; T = 25 °C, I = 0.15 M NaCl): 70 M⁻¹ s⁻¹
KMnL x H ([10]; protonation constant of the complex from kinetic fit, T = 25 °C, I = 0.15 M NaCl): 1.15 × 10^3
KML x Cu ([10]; stability constant of dinuclear intermediate, T = 25 °C, I = 0.15 M NaCl, unit assumed): 16 M⁻¹

Compound: O=C([O-])CN1CCNCCN(CC(=O)[O-])CCN(CC(=O)[O-])CC1.[Mn+2] [[Mn(DO3A)]^−]
relaxivity of complexes with q = 0 [6]: 1.4 to 1.6 mM⁻¹ s⁻¹

Compound: O=C([O-])CN1CCN(CC(=O)[O-])Cc2cccc(n2)CN(CC(=O)[O-])CC1.[Mn+2] [[Mn(PCTA)]^−]
relaxivity of complexes with q = 0 [6]: 1.4 to 1.6 mM⁻¹ s⁻¹
